The values that follow are results of earlier work, collected in patent publication US9370574B2, “Composite absorbable/biodegradable rings for controlled drug delivery” (Poly-Med, Inc., priority 2003, dated 2016).

For data set [1], the system named is bacterial vaginosis.
The test system of data set [2] is bacterial vaginosis. The conditions noted are these: 5 gm gel (0.75%) twice-daily for 5 days.
Data set [3] concerns cervical intraepithelial neoplasia (CIN). The following applies: collagen sponge in cervical cap.
Data set [4] has as its system post-irradiation vaginal carcinoma in-situ. The following applies: 20% 5-FU over monthly 5-day courses.
The subject of data set [5] is Human Papillomavirus (HPV)-associated lesions of the vulva and vagina. The following applies: biweekly doses of 5% cream for six months following ablative treatment.

For `Cc1ncc([N+](=O)[O-])n1CCO` [metronidazole], the “failure rate after one month, high dose” value in the data set on bacterial vaginosis [1] (high dose sponge (one gram once-daily for three days)) was 12%. In addition, the cure rate with bacterial vaginosis [1] (intravaginal sponges, 250 mg twice-daily two days or one gram once-daily three days, after one week) is given as 85%. Moreover, the “failure rate after one month, low dose” value in the data set with bacterial vaginosis [1] (low dose sponge (250 mg twice-daily for two days)) was 42%. Moreover, the clinical cure rate in the data set with bacterial vaginosis [2] (after 9 to 21 days) is given as 87%. For the same molecule, the recurrence rate with bacterial vaginosis [2] (after one month) was 15%.

For the molecule `CC1=C(/C=C/C(C)=C/C=C/C(C)=C/C(=O)O)C(C)(C)CCC1` [RA, all-trans-retinoic acid], the “complete histologic regression of CIN II” value in data set [3] (locally applied daily for 4 days) is recorded as 43%. Moreover, the “treatment effect in severe dysplasia (CIN III)” value in data set [3] (locally applied) is recorded as “No treatment effect”.

`O=c1[nH]cc(F)c(=O)[nH]1` [Type 5-FU, 5-flurouracil]: in data set [4], the initial complete response entry is on record as “seven of the eight”. The recurrences in data set [5] was 13%.
